Assay results reported in ChEMBL document CHEMBL1671830, “Discovery of PSI-353661, a Novel Purine Nucleotide Prodrug for the Treatment of HCV Infection” (ACS Med Chem Lett, 2011).

Legend:
[1] = Cytotoxicity against human CEM cells after 96 hrs by MTS assay; format: cell-based; details: CEM (CCRF-CEM) cells
[2] = Cytotoxicity against human HepG2 cells after 96 hrs by MTS assay; format: cell-based
Hepatitis C virus [3] = assay: Antiviral activity against HCV infected in human HuH7 cells by cell-based replicon assay; format: functional, Hepacivirus hominis, Huh-7
[4] = Cytotoxicity against human […] cells after 96 hrs by MTS assay; format: cell-based
[5] = Cytotoxicity against human HuH7 cells after 96 hrs by MTS assay; format: cell-based, Huh-7
Hepatitis C virus [6] = assay: Antiviral activity against HCV harboring NS5B polymerase S282T mutant infected in human HuH7 cells by cell-based replicon assay; format: functional, Hepacivirus hominis, Huh-7
HepG2 [7] = assay: Cytotoxicity against human HepG2 cells assessed as mitochondrial rDNA level up to 100 uM after 14 days by RT-PCR analysis; format: cell-based; details: hepg2, 336 h
[8] = Half life in human liver S9 fraction; format: ADME, subcellular
CCRF-CEM [9] = assay: Cytotoxicity against human CEM cells assessed as mitochondrial rDNA level up to 100 uM after 14 days by RT-PCR analysis; format: cell-based; details: 336 h
HepG2 [10] = assay: Cytotoxicity against human HepG2 cells assessed as mitochondrial COX2 DNA level up to 100 uM after 14 days by RT-PCR analysis; format: cell-based; details: hepg2, 336 h
CCRF-CEM [11] = assay: Cytotoxicity against human CEM cells assessed as mitochondrial COX2 DNA level up to 100 uM after 14 days by RT-PCR analysis; format: cell-based; details: 336 h
[12] = Half life in human plasma; format: ADME, cell-free
[13] = Half life in simulated gastrointestinal fluid; format: ADME
[14] = Half life in simulated intestinal fluid; format: ADME
Hepatocyte = assay: Increase of cellular triphosphate level in human primary hepatocytes cells at 100 uM after 24 hrs by HPLC analysis; format: functional
Huh-7 = assay: Increase of cellular triphosphate level in human HuH7 cells at 100 uM after 48 hrs by HPLC analysis; format: functional

SMILES | CC50 at 96 h [1] | CC50 at 96 h [2] | EC90 (Hepatitis C virus [3]; Hepatitis C virus, Huh-7) | CC50 at 96 h [4] | CC50 at 96 h [5] | further results
CCOC(=O)[C@H](C)NP(=O)(OC[C@H]1O[C@@H](n2cnc3c(O)nc(N)nc32)[C@](C)(F)[C@@H]1O)Oc1ccccc1 (some centres undefined) | > 100 µM | > 100 µM | 2.38 µM | > 100 µM | > 100 µM | –
CCOC(=O)[C@H](C)NP(=O)(OC[C@H]1O[C@@H](n2cnc3c(OC)nc(N)nc32)[C@](C)(F)[C@@H]1O)Oc1ccccc1 (some centres undefined) | 55 µM | 62 µM | 0.0074 µM | 65 µM | > 100 µM | EC90 (Hepatitis C virus [6]; Hepatitis C virus, Huh-7): 0.011 µM
CCOC(=O)[C@H](C)NP(=O)(OC[C@H]1O[C@@H](n2cnc3c(OCC)nc(N)nc32)[C@](C)(F)[C@@H]1O)Oc1ccccc1 (some centres undefined) | 37 µM | 61 µM | 0.01 µM | 68 µM | 47 µM | –
CCCOc1nc(N)nc2c1ncn2[C@@H]1O[C@H](COP(=O)(N[C@@H](C)C(=O)OCC)Oc2ccccc2)[C@@H](O)[C@@]1(C)F (some centres undefined) | – | – | 0.013 µM | – | – | –
CCOC(=O)[C@H](C)NP(=O)(OC[C@H]1O[C@@H](n2cnc3c(OCCOC)nc(N)nc32)[C@](C)(F)[C@@H]1O)Oc1ccccc1 (some centres undefined) | – | – | 0.02 µM | – | – | –
CCOC(=O)[C@H](C)NP(=O)(OC[C@H]1O[C@@H](n2cnc3c(OCCF)nc(N)nc32)[C@](C)(F)[C@@H]1O)Oc1ccccc1 (some centres undefined) | – | – | 0.027 µM | – | – | –
CCOC(=O)[C@H](C)NP(=O)(OC[C@H]1O[C@@H](n2cnc3c(SCC)nc(N)nc32)[C@](C)(F)[C@@H]1O)Oc1ccccc1 (some centres undefined) | – | – | 0.047 µM | – | – | –
CCOC(=O)[C@H](C)NP(=O)(OC[C@H]1O[C@@H](n2cnc3c(N4CCC4)nc(N)nc32)[C@](C)(F)[C@@H]1O)Oc1ccccc1 (some centres undefined) | 39 µM | 75 µM | 0.007 µM | 84 µM | 84 µM | –
CCOC(=O)[C@H](C)NP(=O)(OC[C@H]1O[C@@H](n2cnc3c(NC4CC4)nc(N)nc32)[C@](C)(F)[C@@H]1O)Oc1ccccc1 (some centres undefined) | 45 µM | > 100 µM | 0.0098 µM | > 100 µM | > 100 µM | –
CCOC(=O)[C@H](C)NP(=O)(OC[C@H]1O[C@@H](n2cnc3c(NC4CCC4)nc(N)nc32)[C@](C)(F)[C@@H]1O)Oc1ccccc1 (some centres undefined) | – | – | 0.024 µM | – | – | –
CCOC(=O)[C@H](C)NP(=O)(OC[C@H]1O[C@@H](n2cnc3c(NC4CCCC4)nc(N)nc32)[C@](C)(F)[C@@H]1O)Oc1ccccc1 (some centres undefined) | – | – | 0.026 µM | – | – | –
CC(C)OC(=O)[C@H](C)NP(=O)(OC[C@H]1O[C@@H](n2cnc3c(O)nc(N)nc32)[C@](C)(F)[C@@H]1O)Oc1ccccc1 (some centres undefined) | > 100 µM | > 100 µM | 0.75 µM | > 100 µM | > 100 µM | EC90 (Hepatitis C virus [6]; Hepatitis C virus, Huh-7): 0.61 µM
C[C@H](NP(=O)(OC[C@H]1O[C@@H](n2cnc3c(O)nc(N)nc32)[C@](C)(F)[C@@H]1O)Oc1ccccc1)C(=O)OC1CCCC1 (some centres undefined) | > 100 µM | > 100 µM | 0.18 µM | > 100 µM | > 100 µM | Activity (HepG2 [7]): Non-toxic; half-life [8]: 0.2 h; Activity (CCRF-CEM [9]): Non-toxic; Activity (HepG2 [10]): Non-toxic; Activity (CCRF-CEM [11]): Non-toxic; half-life [12]: > 24 h; half-life [13]: 15 h; EC90 (Hepatitis C virus [6]; Hepatitis C virus, Huh-7): 0.12 µM; half-life [14]: > 20 h; Activity (Hepatocyte): 0.04 mM; Activity (Huh-7): 0.06 mM
C[C@H](NP(=O)(OC[C@H]1O[C@@H](n2cnc3c(O)nc(N)nc32)[C@](C)(F)[C@@H]1O)Oc1ccccc1)C(=O)OC1CCCCC1 (some centres undefined) | > 100 µM | > 100 µM | 0.446 µM | > 100 µM | > 100 µM | –
COC(=O)[C@H](C)NP(=O)(OC[C@H]1O[C@@H](n2cnc3c(OC)nc(N)nc32)[C@](C)(F)[C@@H]1O)Oc1ccccc1 (some centres undefined) | 20 µM | 71 µM | 0.0081 µM | > 100 µM | > 100 µM | –
CCOc1nc(N)nc2c1ncn2[C@@H]1O[C@H](COP(=O)(N[C@@H](C)C(=O)OC)Oc2ccccc2)[C@@H](O)[C@@]1(C)F (some centres undefined) | 74 µM | > 100 µM | 0.016 µM | > 100 µM | > 100 µM | EC90 (Hepatitis C virus [6]; Hepatitis C virus, Huh-7): 0.016 µM
CCOc1nc(N)nc2c1ncn2[C@@H]1O[C@H](COP(=O)(N[C@@H](C)C(=O)OC(C)C)Oc2ccccc2)[C@@H](O)[C@@]1(C)F (some centres undefined) | 93 µM | > 100 µM | 0.02 µM | > 100 µM | 59 µM | –
CCCOc1nc(N)nc2c1ncn2[C@@H]1O[C@H](COP(=O)(N[C@@H](C)C(=O)OC)Oc2ccccc2)[C@@H](O)[C@@]1(C)F (some centres undefined) | 17 µM | 45 µM | 0.0146 µM | 39 µM | 39 µM | –
CCCOc1nc(N)nc2c1ncn2[C@@H]1O[C@H](COP(=O)(N[C@@H](C)C(=O)OC(C)C)Oc2ccccc2)[C@@H](O)[C@@]1(C)F (some centres undefined) | 44 µM | > 100 µM | 0.033 µM | > 100 µM | 49 µM | –
COC(=O)[C@H](C)NP(=O)(OC[C@H]1O[C@@H](n2cnc3c(N4CCC4)nc(N)nc32)[C@](C)(F)[C@@H]1O)Oc1ccccc1 (some centres undefined) | 75 µM | > 100 µM | 0.09 µM | > 100 µM | > 100 µM | Activity (HepG2 [7]): Non-toxic; half-life [8]: 0.4 h; Activity (CCRF-CEM [9]): Non-toxic; Activity (HepG2 [10]): Non-toxic; Activity (CCRF-CEM [11]): Non-toxic; half-life [12]: 11.6 h; half-life [13]: > 20 h; EC90 (Hepatitis C virus [6]; Hepatitis C virus, Huh-7): 0.04 µM; half-life [14]: > 20 h; Activity (Hepatocyte): 0.05 mM; Activity (Huh-7): 0.16 mM
CC(C)OC(=O)[C@H](C)NP(=O)(OC[C@H]1O[C@@H](n2cnc3c(N4CCC4)nc(N)nc32)[C@](C)(F)[C@@H]1O)Oc1ccccc1 (some centres undefined) | 74 µM | 100 µM | 0.019 µM | 74 µM | 53 µM | –
COC(=O)[C@H](C)NP(=O)(OC[C@H]1O[C@@H](n2cnc3c(NC4CC4)nc(N)nc32)[C@](C)(F)[C@@H]1O)Oc1ccccc1 (some centres undefined) | 34 µM | > 100 µM | 0.0082 µM | > 100 µM | > 100 µM | –
CC(C)OC(=O)[C@H](C)NP(=O)(OC[C@H]1O[C@@H](n2cnc3c(NC4CC4)nc(N)nc32)[C@](C)(F)[C@@H]1O)Oc1ccccc1 (some centres undefined) | > 100 µM | > 100 µM | 0.0088 µM | 98 µM | 96 µM | –
COc1nc(N)nc2c1ncn2[C@@H]1O[C@H](CO[P@](=O)(N[C@@H](C)C(=O)OC(C)C)Oc2ccccc2)[C@@H](O)[C@@]1(C)F | – | – | 0.027 µM | – | – | EC90 (Hepatitis C virus [6]; Hepatitis C virus, Huh-7): 0.038 µM; Activity (Hepatocyte): 0.14 mM; Activity (Huh-7): 0.07 mM
COc1nc(N)nc2c1ncn2[C@@H]1O[C@H](COP(=O)(N[C@@H](C)C(=O)OC(C)C)Oc2ccccc2)[C@@H](O)[C@@]1(C)F (stereo in doubt; 23b) | – | – | – | – | – | EC90 (Hepatitis C virus [3]): 0.008 µM; EC90 (Hepatitis C virus [6]): 0.011 µM; Activity (Hepatocyte): 0.44 mM; Activity (Huh-7): 0.17 mM
